From PubChem BioAssay (NCI)
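Where inhibition never reached the appropriate level, the endpoint shown equals the highest concentration tested. Otherwise, values were interpolated linearly from a five-concentration, 48-hour dose response in 96-well plates. TGI: total growth inhibition.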

Assays:
Experiment in all cases: NCI-60 cell line screen, 48 h
[1] = system: UO-31 renal
[2] = system: MALME-3M melanoma
[3] = system: SK-MEL-2 melanoma
[4] = system: SNB-19 CNS
[5] = system: NCI-H460 lung
[6] = system: UACC-257 melanoma
[7] = system: KM12 colon
[8] = system: A549 NSCLC
[9] = system: SK-OV-3 ovarian
[10] = system: 786-0 renal
[11] = system: SF-295 CNS
[12] = system: RXF 393 renal

| SMILES | TGI [1] | TGI [2] | TGI [3] | TGI [4] | TGI [5] | TGI [6] | TGI [7] | TGI [8] | TGI [9] | TGI [10] | TGI [11] | TGI [12] |
| --- | --- | --- | --- | --- | --- | --- | --- | --- | --- | --- | --- | --- |
| Clc1ccccc1C1=NN(c2ccccc2)C2c3ccccc3OCC12 (configuration not stated) | > 100 µM | > 100 µM | > 100 µM | > 100 µM | > 100 µM | > 100 µM | > 100 µM | > 100 µM | > 100 µM | > 100 µM | > 100 µM | > 100 µM |
| Oc1ccccc1C=Nc1ccc(-c2nc3ccccc3[nH]2)cc1 | > 100 µM | > 100 µM | > 100 µM | > 100 µM | > 100 µM | > 100 µM | > 100 µM | > 100 µM | > 100 µM | > 100 µM | > 100 µM | > 100 µM |
| Cc1cccc(CC(Cc2c(C)cccc2C(=O)O)C(=O)O)c1 (configuration not stated) | > 100 µM | > 100 µM | > 100 µM | > 100 µM | > 100 µM | > 100 µM | > 100 µM | > 100 µM | > 100 µM | > 100 µM | > 100 µM | > 100 µM |
| CC1=CCC2C3(C)CCC2(C(C)C)C1C3 (configuration not stated) (tested in a mixture with another compound) | 82.3 µM | > 100 µM | 32.2 µM | 33.8 µM | 32.9 µM | 99.7 µM | 36.8 µM | 39 µM | > 100 µM | 47.3 µM | 40.3 µM | 33.2 µM |
| Cc1ccc(N=N/C(=N/NC(=O)c2cc(Cl)ccc2C(=O)c2ccccc2)c2ccc(N(CCC#N)CCC#N)cc2C)cc1 | > 100 µM | 32.4 µM | 28.2 µM | > 100 µM | 13.6 µM | 39.4 µM | > 100 µM | 58.7 µM | 40 µM | 53.7 µM | 86.9 µM | 7.24 µM |
| Cc1ccc(S(=O)(=O)N2C[C@](O)(c3ccccc3)[C@H]2C)cc1 | > 100 µM | > 100 µM | > 100 µM | > 100 µM | > 100 µM | > 100 µM | > 100 µM | > 100 µM | > 100 µM | > 100 µM | > 100 µM | > 100 µM |
